{"source": "patent US9387211B2", "about": "(Cedars-Sinai Medical Center, priority 2010, dated 2016)", "key": {"[1]": {"tested_on": "AtT20 cells stably expressing empty vector (V)", "assay": "Cell proliferation assay (cell counting)", "experimental": "EGFR WT cells were plated at a density of 2×10^4 per well in 12-well plates with growth medium. Cells were counted by hemocytometer at the indicated times."}, "[2]": {"tested_on": "AtT20 cells stably expressing empty vector (V)", "assay": "BrdU incorporation by flow cytometry", "conditions": "10 μM gefitinib, 24 hours", "experimental": "Fixative was prepared by adding 30 mL of 50 mM glycin solution (pH 2.0) to 70 mL ethanol. Cells were fixed for overnight at −20° C. Cells were washed with PBS, and resuspended in incubation solution with anti-BrdU antibody (1:10) for 30 minutes at 37° C. with gentle agitation. […] Samples were washed with PBS and fluorescence was measured by flow cytometry."}, "[3]": {"tested_on": "non-tumor pituitary cell cultures"}, "[4]": {"tested_on": "AtT20 cells stably expressing empty vector (V)", "assay": "Pomc promoter luciferase assay", "conditions": "highest gefitinib dose (10 μM); control cells"}}}
{"smiles": "COc1cc2ncnc(Nc3ccc(F)c(Cl)c3)c2cc1OCCCN1CCOCC1", "note": "[gefitinib]", "values": [{"measurement": "decrease of cell proliferation", "setting": "[1]; gefitinib 0.1-10 μM, 24 hours, V", "value": "not V cell proliferation"}, {"measurement": "cell number", "setting": "[1]; high dose (10 μM) gefitinib, V cells", "value": "not altered"}, {"measurement": "reduction of BrdU incorporation", "setting": "[2]", "value": "~58", "unit": "%"}, {"measurement": "pomc mRNA expression levels", "setting": "[3]; non-tumor pituitary cell cultures (FIG. 6)", "value": "unaltered"}, {"measurement": "normal pituitary function", "setting": "[3]; normal pituitary (FIG. 5F)", "value": "does not affect"}, {"measurement": "suppression of pomc promoter activity", "setting": "[4]", "value": "~23", "unit": "%"}]}
